# From patent US9834571B2, “Compounds for inhibiting cell proliferation in EGFR-driven cancers” (ARIAD Pharmaceuticals, Inc., priority 2012, dated 2017)
# Read-outs that look alike come from different tables or passages of the source.
# Assays:
# [1] = biological target: human EGFR (native sequence) (Homo sapiens, UniProt P00533); experiment: Kinase inhibitory activity against human EGFR (native sequence); assay type: biochemical; settings: 10 μM ATP, read-out: IC50 for kinase inhibition, EGFR
# Outline: (§1)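 Testing covers a ten-concentration range beginning at 3 μM, performed once per concentration at an ATP level of 10 μM.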
# [2] = biological target: EGFR L858R (Homo sapiens, UniProt P00533, L858R); experiment: Kinase inhibitory activity against EGFR bearing the L858R mutation; assay type: biochemical; settings: 10 μM ATP, read-out: IC50 for kinase inhibition, EGFR L858R
# Sequence of EGFR L858R (P00533 25-1210 L858R): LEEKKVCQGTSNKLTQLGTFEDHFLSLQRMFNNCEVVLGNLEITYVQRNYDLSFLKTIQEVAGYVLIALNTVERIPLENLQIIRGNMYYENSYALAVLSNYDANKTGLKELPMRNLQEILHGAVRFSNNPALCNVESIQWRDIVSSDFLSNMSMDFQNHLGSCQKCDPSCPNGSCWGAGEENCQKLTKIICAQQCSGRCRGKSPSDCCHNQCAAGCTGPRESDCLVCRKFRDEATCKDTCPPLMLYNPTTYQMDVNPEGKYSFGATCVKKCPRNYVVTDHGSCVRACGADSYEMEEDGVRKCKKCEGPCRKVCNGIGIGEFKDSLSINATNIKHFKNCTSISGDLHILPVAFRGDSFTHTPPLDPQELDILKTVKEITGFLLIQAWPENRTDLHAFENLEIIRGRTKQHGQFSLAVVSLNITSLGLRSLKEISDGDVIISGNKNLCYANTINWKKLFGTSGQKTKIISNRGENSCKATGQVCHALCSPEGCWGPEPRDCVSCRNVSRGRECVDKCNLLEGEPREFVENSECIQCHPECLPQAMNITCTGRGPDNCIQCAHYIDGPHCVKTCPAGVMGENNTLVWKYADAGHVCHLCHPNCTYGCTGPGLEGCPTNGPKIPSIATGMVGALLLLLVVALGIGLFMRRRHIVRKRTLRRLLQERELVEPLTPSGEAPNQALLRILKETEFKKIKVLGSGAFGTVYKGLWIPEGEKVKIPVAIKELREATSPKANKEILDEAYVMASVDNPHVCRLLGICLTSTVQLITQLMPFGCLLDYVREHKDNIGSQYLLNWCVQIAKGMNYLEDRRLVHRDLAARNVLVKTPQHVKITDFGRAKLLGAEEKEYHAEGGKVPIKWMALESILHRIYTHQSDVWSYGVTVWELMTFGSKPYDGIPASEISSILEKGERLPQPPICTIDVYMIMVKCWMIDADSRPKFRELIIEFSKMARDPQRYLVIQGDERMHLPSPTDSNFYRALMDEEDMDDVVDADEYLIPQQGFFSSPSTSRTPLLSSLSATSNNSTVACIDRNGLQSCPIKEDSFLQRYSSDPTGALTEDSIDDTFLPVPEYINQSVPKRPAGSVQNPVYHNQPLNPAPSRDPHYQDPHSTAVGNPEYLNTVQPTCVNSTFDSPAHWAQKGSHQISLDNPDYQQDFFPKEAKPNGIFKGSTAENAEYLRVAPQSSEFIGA
# Outline: as §1
# [3] = biological target: EGFR L858R/T790M (Homo sapiens, UniProt P00533, L858R/T790M); experiment: Kinase inhibitory activity against EGFR bearing the L858R/T790M double mutation; assay type: biochemical; settings: 10 μM ATP, read-out: IC50 for kinase inhibition, EGFR L858R T790M
# Sequence of EGFR L858R/T790M (P00533 25-1210 T790M/L858R): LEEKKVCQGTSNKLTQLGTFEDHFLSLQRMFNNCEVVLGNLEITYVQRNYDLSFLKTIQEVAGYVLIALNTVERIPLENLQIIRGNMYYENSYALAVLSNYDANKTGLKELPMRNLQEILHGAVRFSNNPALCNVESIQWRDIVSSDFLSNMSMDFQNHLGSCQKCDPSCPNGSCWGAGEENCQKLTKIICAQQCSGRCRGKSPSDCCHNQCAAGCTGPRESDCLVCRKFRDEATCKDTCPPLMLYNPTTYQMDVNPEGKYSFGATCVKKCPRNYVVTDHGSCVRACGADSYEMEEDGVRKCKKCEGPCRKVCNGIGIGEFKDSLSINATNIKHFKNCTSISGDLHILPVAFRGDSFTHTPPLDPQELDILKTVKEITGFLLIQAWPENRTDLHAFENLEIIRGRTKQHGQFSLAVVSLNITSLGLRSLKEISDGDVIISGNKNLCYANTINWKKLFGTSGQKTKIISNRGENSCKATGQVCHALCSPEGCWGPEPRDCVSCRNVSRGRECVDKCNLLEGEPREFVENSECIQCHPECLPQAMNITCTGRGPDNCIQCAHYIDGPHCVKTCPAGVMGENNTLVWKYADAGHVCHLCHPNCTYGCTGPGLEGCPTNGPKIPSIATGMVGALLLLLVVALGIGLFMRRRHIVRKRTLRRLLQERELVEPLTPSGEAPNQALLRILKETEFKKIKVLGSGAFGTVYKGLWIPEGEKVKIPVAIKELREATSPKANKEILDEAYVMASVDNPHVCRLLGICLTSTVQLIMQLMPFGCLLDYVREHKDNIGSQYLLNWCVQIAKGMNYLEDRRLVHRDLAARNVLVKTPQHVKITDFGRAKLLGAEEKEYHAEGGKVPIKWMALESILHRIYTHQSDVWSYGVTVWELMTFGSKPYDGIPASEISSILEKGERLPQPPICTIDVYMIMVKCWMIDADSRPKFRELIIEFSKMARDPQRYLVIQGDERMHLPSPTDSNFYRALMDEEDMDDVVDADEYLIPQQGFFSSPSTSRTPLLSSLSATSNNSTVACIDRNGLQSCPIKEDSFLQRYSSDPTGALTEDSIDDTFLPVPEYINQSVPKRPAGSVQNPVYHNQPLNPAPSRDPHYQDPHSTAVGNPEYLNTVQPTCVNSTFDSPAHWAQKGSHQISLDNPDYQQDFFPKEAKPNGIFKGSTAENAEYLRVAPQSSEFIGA
# Outline: as §1
# [4] = biological target: T1, BaF3 cells expressing the target EGFR mutations (Homo sapiens, UniProt P00533, T790M, cells depend on it, form not given); experiment: Antiproliferative activity (MTT) against BaF3 cells expressing the target EGFR mutations; assay type: cell-based; settings: BAF3 EGFR DEL T790M PURO POOL cells, read-out: IC50, BAF3 EGFR DEL T790M PURO POOL
# T1 construct: IC50, BAF3 EGFR DEL T790M PURO POOL; other: BAF3 EGFR DEL T790M PURO POOL cells, MTT; other: BAF3 EGFR DEL T790M PURO POOL cells; MTT
# T1 sequence (P00533 with tags, fused parts or gaps DEL746-750/T790M, form open): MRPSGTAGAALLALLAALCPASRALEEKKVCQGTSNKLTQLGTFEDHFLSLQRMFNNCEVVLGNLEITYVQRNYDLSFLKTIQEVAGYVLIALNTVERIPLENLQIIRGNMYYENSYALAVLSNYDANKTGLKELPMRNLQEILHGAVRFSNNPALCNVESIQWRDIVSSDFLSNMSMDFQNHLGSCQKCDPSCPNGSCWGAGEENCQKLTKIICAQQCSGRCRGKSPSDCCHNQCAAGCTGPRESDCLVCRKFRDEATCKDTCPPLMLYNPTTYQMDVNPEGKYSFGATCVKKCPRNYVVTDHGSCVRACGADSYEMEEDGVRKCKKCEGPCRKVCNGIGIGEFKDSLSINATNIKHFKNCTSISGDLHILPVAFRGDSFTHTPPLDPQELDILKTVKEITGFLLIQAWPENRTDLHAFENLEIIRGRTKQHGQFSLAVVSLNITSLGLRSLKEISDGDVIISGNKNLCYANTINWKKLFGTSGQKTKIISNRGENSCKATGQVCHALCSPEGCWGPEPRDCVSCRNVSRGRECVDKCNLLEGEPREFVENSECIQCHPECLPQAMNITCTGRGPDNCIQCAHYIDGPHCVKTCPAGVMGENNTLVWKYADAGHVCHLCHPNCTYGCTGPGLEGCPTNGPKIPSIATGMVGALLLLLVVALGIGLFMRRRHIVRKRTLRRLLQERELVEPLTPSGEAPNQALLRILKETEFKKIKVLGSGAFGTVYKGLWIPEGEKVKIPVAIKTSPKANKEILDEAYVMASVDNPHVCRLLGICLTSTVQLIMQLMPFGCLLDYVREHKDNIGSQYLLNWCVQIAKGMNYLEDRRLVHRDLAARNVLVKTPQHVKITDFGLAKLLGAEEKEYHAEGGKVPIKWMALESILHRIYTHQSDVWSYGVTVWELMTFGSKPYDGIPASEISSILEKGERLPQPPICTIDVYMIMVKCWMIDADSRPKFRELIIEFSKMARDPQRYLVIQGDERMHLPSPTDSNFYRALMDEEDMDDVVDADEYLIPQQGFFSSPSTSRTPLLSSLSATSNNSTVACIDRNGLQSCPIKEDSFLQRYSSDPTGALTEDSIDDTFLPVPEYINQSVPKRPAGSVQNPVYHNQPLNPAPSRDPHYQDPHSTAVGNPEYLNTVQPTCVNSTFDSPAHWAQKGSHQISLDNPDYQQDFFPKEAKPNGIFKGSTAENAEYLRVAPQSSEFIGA
# Outline: (§2)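 Compounds were tested on BaF3 cells bearing target EGFR mutations and on control BaF3 cells with wildtype EGFR; viability was then determined by MTT.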
# [5] = biological target: T2, BaF3 cells expressing the target EGFR mutations (Homo sapiens, UniProt P00533, T790M/L858R, cells depend on it); experiment: as above; assay type: cell-based; settings: BAF3 EGFR L858R-T790M PURO POOL cells, read-out: IC50, BAF3 EGFR L858R-T790M PURO POOL
# T2 construct: IC50, BAF3 EGFR L858R-T790M PURO POOL; other: BAF3 EGFR L858R-T790M PURO POOL cells, MTT; IC50, BAF3 EGFR L858R-T790M PURO POOL; other: BAF3 EGFR L858R-T790M PURO POOL cells; MTT
# Outline: as §2
# [6] = tested on: BaF3 cells expressing wildtype EGFR; experiment: Antiproliferative activity (MTT) against control BaF3 cells expressing wildtype EGFR; assay type: cell-based; settings: Mus musculus
# Outline: as §2
# [7] = 10 pt curves, 3 μM top concentration
# [8] = EGFR L858R/T790M double mutation
# Sequence of human EGFR (native sequence) (P00533 25-1210): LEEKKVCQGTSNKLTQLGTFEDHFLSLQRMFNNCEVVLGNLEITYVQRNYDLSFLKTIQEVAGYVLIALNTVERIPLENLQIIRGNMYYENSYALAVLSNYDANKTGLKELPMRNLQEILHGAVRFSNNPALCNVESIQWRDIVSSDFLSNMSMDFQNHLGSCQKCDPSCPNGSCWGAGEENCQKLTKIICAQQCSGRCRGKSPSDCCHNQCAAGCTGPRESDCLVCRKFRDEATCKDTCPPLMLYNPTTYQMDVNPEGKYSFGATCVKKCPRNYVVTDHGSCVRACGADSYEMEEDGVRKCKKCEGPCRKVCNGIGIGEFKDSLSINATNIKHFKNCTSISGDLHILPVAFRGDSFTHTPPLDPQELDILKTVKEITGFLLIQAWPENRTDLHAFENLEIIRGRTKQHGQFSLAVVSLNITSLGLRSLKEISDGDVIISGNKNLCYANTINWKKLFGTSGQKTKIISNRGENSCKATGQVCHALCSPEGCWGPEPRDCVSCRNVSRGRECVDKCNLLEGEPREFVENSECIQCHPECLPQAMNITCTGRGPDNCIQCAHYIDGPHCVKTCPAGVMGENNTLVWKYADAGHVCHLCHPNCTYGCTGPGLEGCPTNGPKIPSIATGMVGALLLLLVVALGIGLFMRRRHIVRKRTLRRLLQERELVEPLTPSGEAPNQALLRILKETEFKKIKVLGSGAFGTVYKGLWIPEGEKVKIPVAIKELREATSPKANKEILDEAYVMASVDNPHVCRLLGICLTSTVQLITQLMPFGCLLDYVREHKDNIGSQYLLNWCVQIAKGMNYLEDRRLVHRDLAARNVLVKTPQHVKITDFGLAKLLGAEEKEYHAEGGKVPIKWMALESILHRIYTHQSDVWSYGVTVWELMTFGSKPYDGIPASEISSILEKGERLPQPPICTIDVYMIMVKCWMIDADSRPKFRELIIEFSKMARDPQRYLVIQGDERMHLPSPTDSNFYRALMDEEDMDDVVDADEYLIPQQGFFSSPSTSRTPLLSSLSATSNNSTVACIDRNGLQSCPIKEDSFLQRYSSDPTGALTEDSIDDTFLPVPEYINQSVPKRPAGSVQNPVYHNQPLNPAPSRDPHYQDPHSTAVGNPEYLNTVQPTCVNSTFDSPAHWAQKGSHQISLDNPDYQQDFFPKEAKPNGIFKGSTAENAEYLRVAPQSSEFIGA
SMILES,"IC50 [1, 7] [nM]","IC50 [2, 7] [nM]","IC50 [3, 7] [nM]",GI50 [4] [nM],GI50 [5] [nM],IC50 ([1]; human EGFR native sequence) [nM],IC50 ([2]; EGFR L858R) [nM],"IC50 [3, 8] [nM]",IC50 ([6]; BAF3 parental cells) [nM],IC50 ([6]; BAF3 PARENTAL cells (control)) [nM]
"COc1ccc(NS(=O)(=O)CCl)cc1Nc1ncc(Cl)c(Nc2ccccc2P(C)(C)=O)n1 [Example 150, 1-chloro-N-(3-((5-chloro-4-((2-(dimethylphosphoryl)phenyl)amino)pyrimidin-2-yl)amino)-4-methoxyphenyl)methanesulfonamide]",≥ 250,≥ 250,≥ 250,≥ 250,≥ 250,,,,≥ 250,
"COc1ccc(NC(=O)C2=CCCCC2)cc1Nc1ncc(Cl)c(Nc2ccccc2P(C)(C)=O)n1 [Example 79, N-(3-((5-chloro-4-((2-(dimethylphosphoryl)phenyl)amino)pyrimidin-2-yl)amino)-4-methoxyphenyl)cyclohex-1-enecarboxamide]",,,,≥ 250,≥ 250,≥ 250,≥ 250,≥ 250,,≥ 250
"C=C(C(=O)Nc1ccc(OC)c(Nc2ncc(Cl)c(Nc3ccccc3P(C)(C)=O)n2)c1)C(F)(F)F [Example 82, N-(3-((5-chloro-4-((2-(dimethylphosphoryl)phenyl)amino)pyrimidin-2-yl)amino)-4-methoxyphenyl)-2-(trifluoromethyl)acrylamide]",,,,≥ 250,≥ 250,< 50,< 50,< 50,,≥ 250
"C=CC(=O)Nc1cc(Nc2ncc(Cl)c(Nc3ccccc3P(C)(C)=O)n2)c(OC)cc1N1CCN(C2CCN(C)CC2)CC1 [Example 27, N-(5-((5-chloro-4-((2-(dimethylphosphoryl)phenyl)amino)pyrimidin-2-yl)amino)-4-methoxy-2-(4-(1-methylpiperidin-4-yl)piperazin-1-yl)phenyl)acrylamide]",,,,50 to 100,101 to 250,< 50,< 50,< 50,,≥ 250
"C=CC(=O)Nc1cc(Nc2ncc(Cl)c(Nc3ccccc3P(C)(C)=O)n2)c(OC)cc1C#CCN1CCCCC1 [Example 167, N-(5-((5-chloro-4-((2-(dimethylphosphoryl)phenyl)amino)pyrimidin-2-yl)amino)-4-methoxy-2-(3-(piperidin-1-yl)prop-1-yn-1-yl)phenyl)acrylamide]",< 50,< 50,< 50,< 50,< 50,,,,< 50,
"C=CC(=O)Nc1ccc(OC)c(Nc2ncc(Cl)c(Nc3ccc(OCCN4CCCCC4)cc3P(C)(C)=O)n2)c1 [Example 108, N-(3-((5-chloro-4-((2-(dimethylphosphoryl)-4-(2-(piperidin-1-yl)ethoxy)phenyl)amino)pyrimidin-2-yl)amino)-4-methoxyphenyl)acrylamide]",< 50,< 50,< 50,< 50,< 50,,,,≥ 250,
"C=C(CN1CCC(N2CCOCC2)CC1)C(=O)Nc1ccc(OC)c(Nc2ncc(Cl)c(Nc3ccccc3P(C)(C)=O)n2)c1 [Example 51, N-(3-((5-chloro-4-((2-(dimethylphosphoryl)phenyl)amino)pyrimidin-2-yl)amino)-4-methoxyphenyl)-2-((4-morpholinopiperidin-1-yl)methyl)acrylamide]",,,,< 50,< 50,< 50,< 50,< 50,,≥ 250
"C=CC(=O)Nc1cc(Nc2ncc(Cl)c(Nc3ccccc3P(C)(C)=O)n2)c(OC)cc1OCc1ccncc1 [Example 11, N-(5-((5-chloro-4-((2-(dimethylphosphoryl)phenyl)amino)pyrimidin-2-yl)amino)-4-methoxy-2-(pyridin-4-ylmethoxy)phenyl)acrylamide]",,,,< 50,101 to 250,< 50,< 50,< 50,,≥ 250
"C=CC(=O)Nc1cc(Nc2ncc(Cl)c(Nc3ccccc3P(C)(C)=O)n2)c(OC)cc1C#CCN(C)C(C)C [Example 166, N-(5-((5-chloro-4-((2-(dimethylphosphoryl)phenyl)amino)pyrimidin-2-yl)amino)-2-(3-(isopropyl(methyl)amino)prop-1-yn-1-yl)-4-methoxyphenyl)acrylamide]",< 50,< 50,< 50,< 50,< 50,,,,≥ 250,

# Continued, in another order:
"IC50 [1, 7] [nM]","IC50 [2, 7] [nM]","IC50 [3, 7] [nM]",GI50 [4] [nM],GI50 [5] [nM],IC50 ([1]; human EGFR native sequence) [nM],IC50 ([2]; EGFR L858R) [nM],"IC50 [3, 8] [nM]",SMILES,IC50 ([6]; BAF3 parental cells) [nM],IC50 ([6]; BAF3 PARENTAL cells (control)) [nM]
< 50,< 50,< 50,< 50,< 50,,,,"COc1cc(N2CCOCC2)c(NC(=O)C#CCN(C)C)cc1Nc1ncc(Cl)c(Nc2ccccc2P(C)(C)=O)n1 [Example 104, N-(5-((5-chloro-4-((2-(dimethylphosphoryl)phenyl)amino)pyrimidin-2-yl)amino)-4-methoxy-2-morpholinophenyl)-4-(dimethylamino)but-2-ynamide]",≥ 250,
,,,< 50,< 50,< 50,< 50,< 50,"C=C(CN1CCCCC1)C(=O)Nc1ccc(OC)c(Nc2ncc(Cl)c(Nc3ccccc3P(C)(C)=O)n2)c1 [Example 43, N-(3-((5-chloro-4-((2-(dimethylphosphoryl)phenyl)amino)pyrimidin-2-yl)amino)-4-methoxyphenyl)-2-(piperidin-1-ylmethyl)acrylamide]",,≥ 250
< 50,< 50,< 50,< 50,< 50,,,,"COc1cc(C)c(NC(=O)CCl)cc1Nc1ncc(Cl)c(Nc2ccccc2P(C)(C)=O)n1 [Example 140, 2-chloro-N-(5-((5-chloro-4-((2-(dimethylphosphoryl)phenyl)amino)pyrimidin-2-yl)amino)-4-methoxy-2-methylphenyl)acetamide]",≥ 250,
,,,< 50,< 50,50 to 100,< 50,< 50,"C=C(CN1CCN(C(C)C)CC1)C(=O)Nc1ccc(OC)c(Nc2ncc(Cl)c(Nc3ccccc3P(C)(C)=O)n2)c1 [Example 50, N-(3-((5-chloro-4-((2-(dimethylphosphoryl)phenyl)amino)pyrimidin-2-yl)amino)-4-methoxyphenyl)-2-((4-isopropylpiperazin-1-yl)methyl)acrylamide]",,≥ 250
< 50,< 50,< 50,< 50,< 50,,,,"COCCC#CC(=O)Nc1cc(Nc2ncc(Cl)c(Nc3ccccc3P(C)(C)=O)n2)c(OC)cc1N1CCOCC1 [Example 115, N-(5-((5-chloro-4-((2-(dimethylphosphoryl)phenyl)amino)pyrimidin-2-yl)amino)-4-methoxy-2-morpholinophenyl)-5-methoxypent-2-ynamide]",≥ 250,
< 50,< 50,< 50,< 50,< 50,,,,C=CC(=O)Nc1cc(Nc2ncc(Cl)c(Nc3ccccc3P(C)(C)=O)n2)c(C)cc1OC(COC)CN(C)C (stereo not drawn) [Example 143],≥ 250,
,,,< 50,< 50,< 50,< 50,< 50,"C=CC(=O)Nc1cc(Nc2ncc(Cl)c(Nc3ccccc3P(C)(C)=O)n2)c(OC)cc1C#CC(C)(C)N [Example 65, N-(2-(3-amino-3-methylbut-1-yn-1-yl)-5-((5-chloro-4-((2-(dimethylphosphoryl)phenyl)amino)pyrimidin-2-yl)amino)-4-methoxyphenyl)acrylamide]",,≥ 250
